Consider 21 compounds from patent publication US20200131129A1, “FARNESOID X RECEPTOR AGONISTS AND USES THEREOF” (Metacrine, Inc., priority 2017, published 2020).

A value given as a limit tells only on which side of the number the result lay.

For this assay, the target named is T1, hFXR (Homo sapiens, UniProt Q96RI1).
T1 construct: expressed in transfected cells; host or cells: CV-1 cells
T1 sequence (Q96RI1 1-486): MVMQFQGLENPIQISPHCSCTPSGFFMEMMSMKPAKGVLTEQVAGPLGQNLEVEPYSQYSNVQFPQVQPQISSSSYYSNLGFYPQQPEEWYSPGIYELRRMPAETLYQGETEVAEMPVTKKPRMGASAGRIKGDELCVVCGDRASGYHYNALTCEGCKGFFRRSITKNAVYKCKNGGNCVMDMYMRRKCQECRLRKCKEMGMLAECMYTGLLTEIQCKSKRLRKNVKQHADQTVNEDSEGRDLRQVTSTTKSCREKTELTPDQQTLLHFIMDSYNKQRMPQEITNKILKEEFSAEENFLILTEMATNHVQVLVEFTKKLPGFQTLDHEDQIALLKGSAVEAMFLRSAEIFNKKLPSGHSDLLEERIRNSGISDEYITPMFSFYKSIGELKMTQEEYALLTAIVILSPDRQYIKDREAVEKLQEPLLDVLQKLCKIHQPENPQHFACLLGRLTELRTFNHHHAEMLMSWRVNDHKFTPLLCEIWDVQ
T1 sequence (P19793 1-462 partner): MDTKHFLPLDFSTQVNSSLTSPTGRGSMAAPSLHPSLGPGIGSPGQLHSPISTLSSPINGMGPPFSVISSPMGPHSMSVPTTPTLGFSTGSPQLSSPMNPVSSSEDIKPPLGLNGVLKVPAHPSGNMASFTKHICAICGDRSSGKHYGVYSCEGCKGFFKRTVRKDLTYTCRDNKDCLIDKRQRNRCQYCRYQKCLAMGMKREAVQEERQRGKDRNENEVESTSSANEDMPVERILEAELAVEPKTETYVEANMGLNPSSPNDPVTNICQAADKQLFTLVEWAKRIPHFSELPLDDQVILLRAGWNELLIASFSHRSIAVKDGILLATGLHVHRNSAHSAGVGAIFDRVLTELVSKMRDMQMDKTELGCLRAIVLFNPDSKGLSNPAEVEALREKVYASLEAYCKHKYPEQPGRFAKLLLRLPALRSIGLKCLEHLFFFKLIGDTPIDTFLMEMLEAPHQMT
The assay can be described thus: In Vitro FXR Assay (TK): hFXR/hRXR TK-ECRE-luc reporter in transfected CV-1 cells. Conditions: CV-1 cells transfected with hFXR, hRXR, 18 hrs incubation, luminescence, maximum efficacy <25% of Fexarmine control also classified as ‘+’. The format is cell-based. As to the method: Example B-1: In Vitro FXR Assay (TK)
CV-1 cells were seeded at a density of 2,000,000 cells in a T175 flask with DMEM+10% charcoal double-stripped FBS and incubated at 37° C. in 5% CO2 for 18 h (O/N).
After 18 h of incubation, the medium in the T175 flask was changed with fresh DMEM+10% charcoal super-stripped serum. In a polypropylene tube, 2500 μL OptiMEM (Life Technologies, Cat #31985-062) was combined with expression plasmids for hFXR, hRXR, TK-ECRE-luc and pCMX-YFP. The tube was then briefly vortexed and incubated at room temperature for 5 minutes. Transfection reagent (X-tremeGENE HP from Roche, Cat #06 366 236 001) was added to the OptiMEM/plasmid mixture vortexed and incubated at room temperature for 20 minutes. Following incubation, the transfection reagent/DNA mixture complex was added to cells in the T175 flask and the cells were incubated at 37° C. in 5% CO2 for 18 h (0/N).
Compounds were serially diluted in DMSO and added to transfected CV-1 cells. The cells were then incubated for 18 hrs. The next day cells were lysed and examined for luminescence.
For orientation: EC50 means the concentration needed to bring the measured effect to its halfway point. A lower EC50 goes with an effect from little substance. For the compound `COc1ccc([C@H]2CC[C@H](CN(c3cccc(-c4cnn(C)n4)c3)C(=O)[C@H]3CC[C@H](O)CC3)CC2)cc1C` [Compound 2.09, trans-4-Hydroxy-N-((trans-4-(4-methoxy-3-methylphenyl)cyclohexyl)methyl)-N-(3-(2-methyl-2H-1,2,3-triazol-4-yl)phenyl)cyclohexanecarboxamide], the EC50 was not below 1000 nM.

In the case of `COc1ccc([C@H]2CC[C@H](CN(c3cccc(-c4ncn(C)n4)c3)C(=O)[C@H]3CC[C@H](O)CC3)CC2)cc1C` [Compound 2.10, trans-4-Hydroxy-N-((trans-4-(4-methoxy-3-methylphenyl)cyclohexyl)methyl)-N-(3-(1-methyl-1H-1,2,4-triazol-3-yl)phenyl)cyclohexanecarboxamide], the EC50 is not below 1000 nM.

Turning to `COc1ccc([C@H]2CC[C@H](CN(c3cccc(-c4cn(C)cn4)c3)C(=O)[C@H]3CC[C@H](O)CC3)CC2)cc1C` [Compound 2.11, trans-4-Hydroxy-N-((trans-4-(4-methoxy-3-methylphenyl)cyclohexyl)methyl)-i-(3-(1-methyl-1H-imidazol-4-yl)phenyl)cyclohexanecarboxamide], the EC50 is not below 1000 nM.

As for `COc1ccc([C@H]2CC[C@H](CN(c3cccc(-c4nsc(C5CC5)n4)c3)C(=O)[C@H]3CC[C@H](O)CC3)CC2)cc1C` [Compound 2.12, trans-N-(3-(5-Cyclopropyl-1,2,4-thiadiazol-3-yl)phenyl)-4-hydroxy-N-((trans-4-(4-methoxy-3-methylphenyl)cyclohexyl)methyl)cyclohexanecarboxamide], the concentration giving a half-maximal response (EC50) lay in the range of 500 to 1000 nM.

`COc1ccc([C@H]2CC[C@H](CN(c3cccc(-c4cnc(N(C)C)cn4)c3)C(=O)[C@H]3CC[C@H](O)CC3)CC2)cc1C` [Compound 2] had an EC50 not above 500 nM.

As for `COc1ccc([C@H]2CC[C@H](CN(c3cccc(-c4cc(C)no4)c3)C(=O)[C@H]3CC[C@H](O)CC3)CC2)cc1C` [Compound 3, trans-4-Hydroxy-N-((trans-4-(4-methoxy-3-methylphenyl)cyclohexyl)methyl)-N-(3-(3-methylisoxazol-5-yl)phenyl)cyclohexanecarboxamide], the EC50 is not above 500 nM.

`COc1ccc([C@H]2CC[C@H](CN(c3cccc(-c4ncco4)c3)C(=O)[C@H]3CC[C@H](O)CC3)CC2)cc1C` [Compound 3.01, trans-4-Hydroxy-N-((trans-4-(4-methoxy-3-methylphenyl)cyclohexyl)methyl)-N-(3-(oxazol-2-yl)phenyl)cyclohexanecarboxamide]: the EC50 is not below 1000 nM.

On to `COc1ccc([C@H]2CC[C@H](CN(c3cccc(-n4ccc(C)c4)c3)C(=O)[C@H]3CC[C@H](O)CC3)CC2)cc1C` [Compound 4], for which the half-maximal effective concentration (EC50) was not above 500 nM.

For the compound `COc1ccc([C@H]2CC[C@H](CN(c3cccc(-c4nnn(C)n4)c3)C(=O)[C@H]3CC[C@H](O)CC3)CC2)cc1C` [Compound 5, trans-4-Hydroxy-N-((trans-4-(4-methoxy-3-methylphenyl)cyclohexyl)methyl)-N-(3-(2-methyl-2H-tetrazol-5-yl)phenyl)cyclohexanecarboxamide], the EC50 was not below 1000 nM.

For `COc1ccc([C@H]2CC[C@H](CN(c3cccc(-c4nnc(C)o4)c3)C(=O)[C@H]3CC[C@H](O)CC3)CC2)cc1C` [Compound 6, trans-4-Hydroxy-N-((trans-4-(4-methoxy-3-methylphenyl)cyclohexyl)methyl)-N-(3-(5-methyl-1,3,4-oxadiazol-2-yl)phenyl)cyclohexanecarboxamide], the EC50 was not below 1000 nM.

`COc1ccc([C@H]2CC[C@H](CN(c3cccc(-n4cnc(C)n4)c3)C(=O)[C@H]3CC[C@H](O)CC3)CC2)cc1C` [Compound 7, trans-4-Hydroxy-N-((trans-4-(4-methoxy-3-methylphenyl)cyclohexyl)methyl)-N-(3-(3-methyl-1-1,2,4-triazol-1-yl)phenyl)cyclohexanecarboxamide]: the EC50 was in the range of 500 to 1000 nM.

Consider `COc1ccc([C@H]2CC[C@H](CN(c3cccc(-n4cnc(C5CC5)n4)c3)C(=O)[C@H]3CC[C@H](O)CC3)CC2)cc1C` [Compound 7.01, trans-N-(3-(3-Cyclopropyl-1H-1,2,4-triazol-1-yl)phenyl)-4-hydroxy-N-((trans-4-(4-methoxy-3-methylphenyl)cyclohexyl)methyl)cyclohexanecarboxamide], for which the 50% effective concentration (EC50) is not above 500 nM.

As to `COc1ccc([C@H]2CC[C@H](CN(c3cccc(-c4cnc(C)o4)c3)C(=O)[C@H]3CC[C@H](O)CC3)CC2)cc1C` [Compound 8, trans-4-Hydroxy-N-((trans-4-(4-methoxy-3-methylphenyl)cyclohexyl)methyl)-N-(3-(2-methyloxazol-5-yl)phenyl)cyclohexanecarboxamide], the EC50 was not above 500 nM.

`COc1ccc([C@H]2CC[C@H](CN(c3cccc(-c4cc(C5CC5)ns4)c3)C(=O)[C@H]3CC[C@H](O)CC3)CC2)cc1C` [Compound 9, trans-N-(3-(3-Cyclopropylisothiazol-5-yl)phenyl)-4-hydroxy-N-((trans-4-(4-methoxy-3-methylphenyl)cyclohexyl)methyl)cyclohexanecarboxamide]: the EC50 was not above 500 nM.

As to `COc1ccc([C@H]2CC[C@H](CN(c3cccc(-n4cnc(C)c4)c3)C(=O)[C@H]3CC[C@H](O)CC3)CC2)cc1C` [Compound 9.01, trans-4-Hydroxy-N-((trans-4-(4-methoxy-3-methylphenyl)cyclohexyl)methyl)-N-(3-(4-methyl-1H-imidazol-1-yl)phenyl)cyclohexanecarboxamide], the EC50 lay within 500 to 1000 nM.

In the case of `COc1ccc([C@H]2CC[C@H](CN(c3cccc(-c4nc(C)no4)c3)C(=O)[C@H]3CC[C@H](O)CC3)CC2)cc1C` [Compound 9.02, trans-4-Hydroxy-N-((trans-4-(4-methoxy-3-methylphenyl)cyclohexyl)methyl)-N-(3-(3-methyl-1,2,4-oxadiazol-5-yl)phenyl)cyclohexanecarboxamide], the EC50 lay in the range of 500 to 1000 nM.

`COc1ccc([C@H]2CC[C@H](CN(c3cccc(-c4nc(C)co4)c3)C(=O)[C@H]3CC[C@H](O)CC3)CC2)cc1C` [Compound 9.03, trans-4-Hydroxy-N-((trans-4-(4-methoxy-3-methylphenyl)cyclohexyl)methyl)-N-(3-(4-methyloxazol-2-yl)phenyl)cyclohexanecarboxamide] yielded an EC50 not below 1000 nM.

`COc1ccc([C@H]2CC[C@H](CN(c3cccc(-c4coc(C)n4)c3)C(=O)[C@H]3CC[C@H](O)CC3)CC2)cc1C` [Compound 9.04, trans-4-Hydroxy-N-((trans-4-(4-methoxy-3-methylphenyl)cyclohexyl)methyl)-N-(3-(2-methyloxazol-4-yl)phenyl)cyclohexanecarboxamide] returned an EC50 not above 500 nM.

In turn, `COc1ccc([C@H]2CC[C@H](CN(c3cccc(-n4nnc(C)n4)c3)C(=O)[C@H]3CC[C@H](O)CC3)CC2)cc1C` [Compound 9.05, trans-4-Hydroxy-N-((trans-4-(4-methoxy-3-methylphenyl)cyclohexyl)methyl)-N-(3-(5-methyl-2H-tetrazol-2-yl)phenyl)cyclohexanecarboxamide] returned an EC50 of 500 to 1000 nM.

With `CCc1cc(-c2cccc(N(C[C@H]3CC[C@H](c4ccc(OC)c(C)c4)CC3)C(=O)[C@H]3CC[C@H](O)CC3)c2)ns1` [Compound 9.06, trans-N-(3-(5-Ethylisothiazol-3-yl)phenyl)-4-hydroxy-N-((trans-4-(4-methoxy-3-methylphenyl)cyclohexyl)methyl) cyclohexanecarboxamide], the EC50 was not above 500 nM.

Consider `COc1ccc([C@H]2CC[C@H](CN(c3cccc(-c4ncsn4)c3)C(=O)[C@H]3CC[C@H](O)CC3)CC2)cc1C` [Compound 9.07, trans-N-(3-(1,2,4-Thiadiazol-3-yl)phenyl)-4-hydroxy-N-((trans-4-(4-methoxy-3-methylphenyl)cyclohexyl)methyl) cyclohexanecarboxamide], for which the EC50 lay in the range of 500 to 1000 nM.
